The values that follow come from patent US20230123488A1, “STABLE TOPICAL TETRACYCLINE COMPOSITIONS” (VYNE THERAPEUTICS INC., priority 2017, published 2023).

The nature of data set [1]: Doxycycline solubility in various solvents. Type of data set: physicochemical. Conditions: supernatant. The procedure:
Saturated solutions of doxycycline hyclate are prepared by stirring doxycycline in approximately 20 g of solvents for over 48 hours at room temperature. By the end of stirring, all samples have solids in equilibrium with liquids. The samples are filtered and subjected to quantification using UPLC.
Each composition was subjected to centrifugation and the supernatant with dissolved active agent analyzed. The weight /weight percentage of active agent found dissolved in each solvent is shown below: […]

The conditions of data set [2]: Cyclomethicone 5 NF, Diisopropyl adipate, Hydrogenated Castor Oil, MCT Oil, cited from earlier work.
Data set [3] is described as follows: Compatibility test of active agent with excipients. It is filed as physicochemical. Conditions: excipients: soybean oil, paraffin 57-64, polyvinyl alcohol and hydroxypropylcellulose (klucel). The procedure:
Compatibility tests were performed as described in US8,343,945 and US8,945,516, which are incorporated here by reference with respect to the excipients and their compatibility described herein. […] The mixture was assessed for active agent degradation and optionally for color change.

Setting [4] is: in Isopropyl myristate, room temperature, 72 hours.
Where [5] appears, read: in Oleic acid, room temperature, 72 hours.

Counter-ions that a name gives are not always drawn. Like-named read-outs stand apart in the source and are kept apart here.

With `C[C@H]1c2cccc(O)c2C(=O)C2=C(O)[C@]3(O)C(=O)C(C(N)=O)=C(O)[C@@H](N(C)C)[C@@H]3[C@@H](O)[C@@H]21` [doxycycline, Doxycycline], the “Doxycycline content (solubility)” value in data set [1] (setting [4]) and in data set [1] (setting [5]) was “Not detected” throughout.

On to Doxycycline Hyclate [Dox hyclate], for which the “Doxycycline content (solubility)” value in data set [1] (in 1,3 propane-di-ol, room temperature, 72 hours) stood at 21.56 % w/w; in data set [1] (in Dimethyl isosorbide, excess doxycycline hyclate stirred at room temperature for 72 hours), 4.12 % w/w; in data set [1] (in Dimethyl sulfoxide, room temperature, 72 hours) it was 25.34 % w/w; in data set [1] (in Ethanol, room temperature, 72 hours), 3.15 % w/w; in data set [1] (in Glycerin, room temperature, 72 hours) it was 18.28 % w/w; in data set [1] (in Hexylene glycol, room temperature, 72 hours), 5.47 % w/w. Besides, the “Doxycycline content (solubility)” value in data set [1] (in Isopropanol, room temperature, 72 hours) was 1.67 % w/w; in data set [1] (setting [4]), “Not detected”; in data set [1] (setting [5]), “Not detected”; in data set [1] (in Oleyl alcohol, room temperature, 72 hours), 0.29 % w/w; in data set [1] (in Propylene carbonate, room temperature, 72 hours), 0.78 % w/w; in data set [1] (in Propylene glycol, room temperature, 72 hours), 34.17 % w/w. Also, in data set [1] (in Transcutol, room temperature, 72 hours), the “Doxycycline content (solubility)” value turned out to be 16.30 % w/w. The Compatibility with excipients result in data set [2] (excipients: Cetearyl octanoate, Ethanol 95%, Hexylene glycol, Isostearic acid, Mineral Oil, Myristyl alcohol, Oleyl alcohol, PEG 100 Stearate, PPG-15 Stearyl Ether, Sorbitan Monostearate (SPAN 60), Stearyl alcohol) is “compatible”.

Take `CN(C)c1ccc(O)c2c1C[C@H]1C[C@H]3[C@H](N(C)C)C(O)=C(C(N)=O)C(=O)[C@@]3(O)C(O)=C1C2=O` [minocycline HCL, Minocycline HCL]: in data set [3], the “Compatibility with additional excipients” value was “compatible”. Further, the Compatibility with excipients entry in data set [2] (excipients: Aerosil, Almond oil, Avocado oil, Beeswax, Behenyl alcohol, Calendula oil, Castor oil, Cetearyl octanoate, Cetostearyl alcohol, Cetyl alcohol, Cocoglycerides, Coconut oil, Gelled mineral oil, Grape seed oil, Hard Fat, Isododecane, isopropyl myristate, Isostearyl alcohol, Jojoba oil, Menthol, Myrist) was “compatible”.
